Measurements as given in patent US20140378469A1, “LKB1/STK11 DELETION IN MELANOMA AND RELATED METHODS” (The University of North Carolina at Chapel Hill, priority 2012, published 2014).

Tested on: TKp53^L/Lp16^L/L melanoma cells
Experiment: in vitro scratch (wound healing) assay with dasatinib
Assay type: cell-based, murine
Conditions: 30 nM dasatinib, 12 hours after wounding
Description: FIG. 4C is a bar graph of closure index for TKp53^L/Lp16^L/L melanoma cells with LKB1 knockdown treated with vehicle (shLkb1+DMSO) or 30 nM dasatinib (shLkb1+Dasatinib) and for TKp53^L/Lp16^L/L melanoma cells without Lkb1 knockdown treated with vehicle (NS+DMSO) or 30 nM dasatinib (NS+Dasatinib). Closure index was measured 12 hours after wounding. The asterisks indicate a significant difference (P<0.05).
The in vitro scratch (wound healing) assay was performed as described previously. See Carretero et al., 2010. Briefly, a 1 mm wide scratch was made on a confluent monolayer, and cells were then allowed to grow under standard conditions for 12 hours. The migrated distance was quantified using Image J™ software. “Close Index” was determined as 1-f, where f is calculated as the remaining gap area divided by the starting scratched area. Cell invasion was measured using matrigel invasion assay using invasion chambers obtained from BD Biosciences (San Jose, Calif., United States of America), with assays performed according to the manufacturer's instructions. Cells of the indicated genotypes (2.5×10^4) were added to the upper chamber in 500 uL of serum-free medium, and the lower chamber was filled with 750 uL of medium containing 10% fetal bovine serum (FBS) as an attractant. After 24 hours of incubation, cells on the underside of the filter were fixed, stained and counted. […]

Cc1nc(Nc2ncc(C(=O)Nc3c(C)cccc3Cl)s2)cc(N2CCN(CCO)CC2)n1 [dasatinib]
decrease in cell migration (closure index) (Lkb-intact melanoma cells (NS)): 14%
decrease in cell migration (closure index) (melanoma cells with Lkb1 knockdown (shLkb1)): 27%
